In data set [1] the target is T1, human dopamine transporter (Homo sapiens (Human), UniProt Q01959). Kind of data set: hDAT binding assay ([3H]WIN35,428).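 Also: displacement of the radioligand from the transporter membranes, incubated 120 min at 4 °C in Tris-HCl buffer with NaCl, pH 7.4, measured by filter-bound radioactivity counting.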
The target in data set [2] is T2, human serotonin transporter (Homo sapiens (Human), UniProt P31645). Briefly: hSERT binding assay ([3H]Imipramine).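 Also: displacement of radiolabeled imipramine from the transporter, incubated 30 min at 27 °C in Tris-HCl pH 7.4 with NaCl and KCl, bound radioactivity counted after filtration, nonspecific binding defined with 200 uM imipramine.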 The conditions noted are these: membrane from HEK293 cells.
The target in data set [3] is T3, human norepinephrine transporter (Homo sapiens (Human), UniProt P23975). Briefly: hNET binding assay ([3H]Nisoxetine). The conditions noted are these: membrane from MDCK cells. Here is the method: NE transporter binding assay for evaluating binding of the compound to the norepinephrine transporter was carried out using human recombinant norepinephrine transporter membrane (PerkinElmer Life and Analytical Sciences, USA) expressed in MDCK cells and radioisotope [^3H]Nisoxetine (PerkinElmer).
That is, the test drug, 6 nM [^3H]Nisoxetine, norepinephrine transporter membrane (11 ug/well), 120 mM NaCl and 50 mM Tris-HCl buffer (pH 7.4) containing 5 mM KCl were added to obtain a reaction mixture with a final volume of 0.25 ml. After incubation for 60 minutes at 4° C., the mixture was quickly passed through a Filtermat A glass fiber filter pre-soaked with 0.5% (w/v) PEI (polyethyleneimine) using Inotech Harvester (Inotech) to terminate the reaction. After washing with cold washing buffer (50 mM Tris-HCl, pH 7.4, 0.9% NaCl) solution, the filter was covered with MeltiLex and sealed in a sample bag. After drying in an oven, radioactivity was counted using MicroBeta Plus (Wallac).
Non-specific binding was measured in the presence of 1 uM desipramine. The IC50 value of the test drug was calculated from non-linear regression analysis (GraphPad Prism Program, San Diego, USA) of each %-inhibition value obtained from the drug with concentrations of 7th and 8th steps.

The target of data set [4] is T1, human dopamine transporter. Kind of data set: hDAT reuptake assay (HEK-hDAT, FDSS6000). The format is cell-based. The note with it: HEK-hDAT cells; Table 3.
The target of data set [5] is T2, human serotonin transporter. Kind of data set: hSERT reuptake assay (HEK-hSERT, FDSS6000). The note with it: HEK-hSERT cells; Table 3. Format: cell-based.
The target of data set [6] is T3, human norepinephrine transporter. Briefly: hNET reuptake assay (HEK-hNET, FDSS6000). The conditions noted are these: HEK-hNET cells; Table 3. Format: cell-based.

By IC50 is commonly meant the midpoint of a concentration-inhibition curve. A lower IC50 goes with greater potency. As a reminder, the inhibition is the change of the read-out against control, counted positive when it falls. A word on the melting point: it is the temperature, or range, at which the solid turns liquid.

T1 sequence (Q01959 whole entry): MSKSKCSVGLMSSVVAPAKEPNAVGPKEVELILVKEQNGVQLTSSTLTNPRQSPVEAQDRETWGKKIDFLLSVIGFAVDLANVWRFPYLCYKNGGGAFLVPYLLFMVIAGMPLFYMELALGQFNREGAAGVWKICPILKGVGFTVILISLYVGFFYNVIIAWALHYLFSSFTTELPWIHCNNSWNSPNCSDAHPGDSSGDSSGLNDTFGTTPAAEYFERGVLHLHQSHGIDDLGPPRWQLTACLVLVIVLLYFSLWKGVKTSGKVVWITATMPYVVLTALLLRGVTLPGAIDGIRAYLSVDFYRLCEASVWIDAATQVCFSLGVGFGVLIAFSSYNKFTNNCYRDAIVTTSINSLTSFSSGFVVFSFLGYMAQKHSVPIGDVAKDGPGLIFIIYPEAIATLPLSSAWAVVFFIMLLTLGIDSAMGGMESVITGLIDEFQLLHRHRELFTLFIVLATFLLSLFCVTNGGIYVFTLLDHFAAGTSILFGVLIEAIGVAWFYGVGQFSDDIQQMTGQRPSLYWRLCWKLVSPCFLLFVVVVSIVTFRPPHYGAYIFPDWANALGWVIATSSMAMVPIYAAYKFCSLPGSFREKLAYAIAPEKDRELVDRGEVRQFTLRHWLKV
T3 sequence (P23975 whole entry): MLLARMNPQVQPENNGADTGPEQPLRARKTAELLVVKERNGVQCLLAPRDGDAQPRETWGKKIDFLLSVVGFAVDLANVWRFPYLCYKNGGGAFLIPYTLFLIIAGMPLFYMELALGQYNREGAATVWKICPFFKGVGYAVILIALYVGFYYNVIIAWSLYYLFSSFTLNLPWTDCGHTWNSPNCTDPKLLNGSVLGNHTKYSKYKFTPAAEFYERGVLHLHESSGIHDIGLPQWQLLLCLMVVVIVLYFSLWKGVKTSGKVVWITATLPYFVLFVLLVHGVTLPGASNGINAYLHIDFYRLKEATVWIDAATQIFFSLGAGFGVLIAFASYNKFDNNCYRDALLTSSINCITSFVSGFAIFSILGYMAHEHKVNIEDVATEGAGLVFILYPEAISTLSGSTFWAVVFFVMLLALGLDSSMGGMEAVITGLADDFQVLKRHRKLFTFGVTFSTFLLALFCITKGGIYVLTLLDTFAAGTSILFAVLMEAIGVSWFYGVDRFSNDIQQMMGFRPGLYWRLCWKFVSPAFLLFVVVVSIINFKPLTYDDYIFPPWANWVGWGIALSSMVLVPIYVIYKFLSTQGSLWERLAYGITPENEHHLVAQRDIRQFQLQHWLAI
T2 sequence (P31645 whole entry): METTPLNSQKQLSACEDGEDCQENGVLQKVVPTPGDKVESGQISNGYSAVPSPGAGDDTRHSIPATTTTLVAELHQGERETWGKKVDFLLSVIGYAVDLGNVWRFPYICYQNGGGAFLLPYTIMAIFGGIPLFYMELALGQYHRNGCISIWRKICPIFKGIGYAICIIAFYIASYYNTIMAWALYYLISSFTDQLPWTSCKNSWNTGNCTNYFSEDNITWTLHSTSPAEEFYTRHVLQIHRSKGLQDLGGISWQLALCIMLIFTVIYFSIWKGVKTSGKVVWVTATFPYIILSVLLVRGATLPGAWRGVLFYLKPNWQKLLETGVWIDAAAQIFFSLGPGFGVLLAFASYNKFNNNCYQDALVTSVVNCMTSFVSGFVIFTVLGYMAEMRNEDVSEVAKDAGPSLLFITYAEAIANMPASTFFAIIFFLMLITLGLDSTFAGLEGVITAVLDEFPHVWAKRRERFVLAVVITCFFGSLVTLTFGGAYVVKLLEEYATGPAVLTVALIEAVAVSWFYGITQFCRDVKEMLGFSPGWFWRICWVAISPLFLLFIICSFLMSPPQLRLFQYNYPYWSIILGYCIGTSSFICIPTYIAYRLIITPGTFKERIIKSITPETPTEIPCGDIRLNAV

Consider `Cc1cccc(OC(c2ccc(Cl)c(Cl)c2)C2CNC2)c1.Cl` (stereo not shown) [KHG26775, 3-((3,4-dichlorophenyl)(meta-tolyloxy)methyl)azetidine hydrochloride], for which the melting point was 200 °C. Further, in data set [1] (membrane from CHO-K1 cells, 8 nM [3H]WIN35,428), the IC50 amounted to 61.8 nM. Also, in data set [1] (read-out: hDAT binding assay %-inhibition (10 uM)), the inhibition at 10 µM was 99%. In addition, in data set [2] (10 uM, read-out: hSERT binding assay %-inhibition (10 uM)), the inhibition at 10 µM came to 99%. The IC50 in data set [2] (2 nM [3H]Imipramine) was 19.8 nM. The inhibition at 10 µM in data set [3] (10 uM, read-out: hNET binding assay %-inhibition (10 uM)) amounted to 100%. The molecule further showed an IC50 in data set [3] (6 nM [3H]Nisoxetine) of 28.4 nM. Further, in data set [4], the IC50 is 400 nM. Besides, inhibition in data set [5] was half-maximal at 600 nM (IC50). The molecule further yielded an IC50 in data set [6] of 600 nM.

Source of the values: patent US9120771B2, “Azetidine derivative and antidepressant composition including the same” (KOREA INSTITUTE OF SCIENCE AND TECHNOLOGY, priority 2011, dated 2015).
